Six compounds from ChEMBL document CHEMBL1149204, “A new lead compound for abscisic acid biosynthesis inhibitors targeting 9-cis-epoxycarotenoid dioxygenase” (Bioorg Med Chem Lett, 2004) can be followed below.

A short description of assay [1]: Inhibitory activity was determined against 9-cis-epoxycarotenoid dioxygenase (NCED) expressed in Escherichia coli in presence of 9''-cis-neo-xanthin.
The test system of assay [2] is Spinacia oleracea. The assay is described as follows: Effect of compound at 100 uM concentration on ABA accumulation in spinachleaf slices determined as fresh weight of leaves (Experiment 3). Type of assay: functional.
Assay [3] deals with Spinacia oleracea. The assay is described as follows: Effect of compound at 100 uM concentration on ABA accumulation in spinachleaf slices determined as fresh weight of leaves (Experiment 1). In kind it is functional.
The test system of assay [4] is Spinacia oleracea. As to the kind of experiment: Effect of compound at 100 uM concentration on ABA accumulation in spinachleaf slices determined as fresh weight of leaves (Experiment 2). Type of assay: functional.
For assay [5], the system named is Spinacia oleracea. As to the kind of experiment: Effect of compound at 0.4 M concentration on ABA accumulation in spinachleaf slices determined as fresh weight of leaves (Experiment 3). In kind it is functional.
Assay [6] relates to Spinacia oleracea. As to the kind of experiment: Effect of compound at 0.4 M concentration on ABA accumulation in spinachleaf slices determined as fresh weight of leaves (Experiment 2). In kind it is functional.
Assay [7] relates to Spinacia oleracea. The assay is described as follows: Effect of compound at 0.4 M concentration on ABA accumulation in spinachleaf slices determined as fresh weight of leaves (Experiment 1). Type of assay: functional.

What is called IC50 is the concentration needed to halve the response being measured.

Molecules are shown by their SMILES.

As for `Oc1ccc(CCNCc2ccccc2O)cc1`, the IC50 in assay [1] came to 160 µM.
`COC(=O)CN(C/C=C/c1ccc(OC)c(OC)c1)Cc1ccc(F)cc1`: the “ABA content per fresh weight” value with Spinacia oleracea [2] came out at 65.6 ng/g; in the assay with Spinacia oleracea [3] it was 14 ng/g; with Spinacia oleracea [4], 82.8 ng/g. Also, the IC50 in assay [1] worked out at 55 µM.
Take `COc1ccc(CCN(C)Cc2ccc(OC)c(OC)c2)cc1`: the IC50 in assay [1] is 87 µM.
In the case of `COc1ccc(NC/C=C/c2ccc(OC)c(OC)c2)cc1`, the “ABA content per fresh weight” value in the assay with Spinacia oleracea [2] was 137.1 ng/g; in the assay with Spinacia oleracea [3], 26.1 ng/g; in the assay with Spinacia oleracea [4], 168.7 ng/g. For the same compound, the 50% inhibitory concentration (IC50) in assay [1] amounted to 145 µM.
`OC[C@@H](O)[C@@H](O)[C@H](O)[C@H](O)CO` [MANNITOL]: the Fresh weight in the assay on Spinacia oleracea [5] was 134.9 ng/g; with Spinacia oleracea [6], 178.4 ng/g; in the assay on Spinacia oleracea [7], 22.7 ng/g.
As for `CC(Cc1ccc(O)c(O)c1)C(C)Cc1ccc(O)c(O)c1` (configuration not stated) [NORDIHYDROGUAIARETIC ACID], the “ABA content per fresh weight” value in the assay with Spinacia oleracea [2] came to 128.5 ng/g; in the assay with Spinacia oleracea [3] it was 20.5 ng/g; with Spinacia oleracea [4], 165.3 ng/g. Further, in assay [1], the IC50 worked out at 183 µM.
